Data reported in patent US20230277553A1, “THERAPEUTIC COMPOSITION OF CURE-PRO COMPOUNDS FOR TARGETED DEGRADATION OF BET DOMAIN PROTEINS, AND METHODS OF MAKING AND USAGE” (CORNELL UNIVERSITY, priority 2020, published 2023).
Entries after “also recorded” stand apart in the source; their conditions may differ.

How the values were obtained:
[1] = test system: SLC19A1; test: Suppression of c-MYC downstream target gene SLC19A1, RT-PCR (Cells-to-Ct), HeLa cells; assay type: cell-based, Human; settings: 24 h, 10 μM each
Method: The suppression of the expression of the downstream c-MYC target, SLC19A1, was measured by RT-PCR using Power SYBR© Green Cells-to-Ct™ Kit (Life Technologies). Adherent cells were plated on 96 well plates at 5,000 cells per well were treated for 24h with monomer compounds and compounds capable of reversible interactions (1 nM-100 μM). Cells were subsequently washed in ice-cold PBS processed according to the manufacturer's instructions. Quantitative real-time PCR was performed using a ViiA™ 7 Real-time PCR System (Applied Biosystems, Foster City, Calif., USA). GAPDH and ACTB served as internal controls. The primers used were (5′-3′): GAPDH-F: AGCCACATCGCTCAGACAC (SEQ ID NO:9), GAPDH-R: GCCCAATACGACCAAATCC (SEQ ID NO:10), ACTB —F: CCAACCGCGAGAAGATGA (SEQ ID NO: 11), ACTB -R: […] (SEQ ID NO: 12), SLC19A1-F: […] (SEQ ID NO:13), SLC19A1-R: […] (SEQ ID NO: 14).
HeLa cells (1×104) were treated for 24 hours in 96 well plates with the compounds solubilized in DMSO. Compounds were added at 10 μM each and RNA expression measured by the Cells-to Ct method described above (Thermofisher). CURE-PRO-mediated suppression of the downstream target gene of c-MYC, SLC19A1, after BRD4 degradation was evident in cells treated with the combination of BRD-N25 and 8310 or 8312 (FIG. 66) and BRD-N39 and 8310 and 8312 (FIG. 67) as indicated by a rightward shift in the curve and in increase in the Ct values.

[2] = target: T1, BRD2 (Homo sapiens, UniProt P25440); test: CURE-PRO-mediated BRD2 degradation with MDM2 ligands, Western blot, HCT116 cells; assay type: cell-based; settings: HCT116, 24 h, 1:1, 10 μM
T1 construct: endogenous in cells; host or cells: HCT116
T1 sequence (P25440 whole entry): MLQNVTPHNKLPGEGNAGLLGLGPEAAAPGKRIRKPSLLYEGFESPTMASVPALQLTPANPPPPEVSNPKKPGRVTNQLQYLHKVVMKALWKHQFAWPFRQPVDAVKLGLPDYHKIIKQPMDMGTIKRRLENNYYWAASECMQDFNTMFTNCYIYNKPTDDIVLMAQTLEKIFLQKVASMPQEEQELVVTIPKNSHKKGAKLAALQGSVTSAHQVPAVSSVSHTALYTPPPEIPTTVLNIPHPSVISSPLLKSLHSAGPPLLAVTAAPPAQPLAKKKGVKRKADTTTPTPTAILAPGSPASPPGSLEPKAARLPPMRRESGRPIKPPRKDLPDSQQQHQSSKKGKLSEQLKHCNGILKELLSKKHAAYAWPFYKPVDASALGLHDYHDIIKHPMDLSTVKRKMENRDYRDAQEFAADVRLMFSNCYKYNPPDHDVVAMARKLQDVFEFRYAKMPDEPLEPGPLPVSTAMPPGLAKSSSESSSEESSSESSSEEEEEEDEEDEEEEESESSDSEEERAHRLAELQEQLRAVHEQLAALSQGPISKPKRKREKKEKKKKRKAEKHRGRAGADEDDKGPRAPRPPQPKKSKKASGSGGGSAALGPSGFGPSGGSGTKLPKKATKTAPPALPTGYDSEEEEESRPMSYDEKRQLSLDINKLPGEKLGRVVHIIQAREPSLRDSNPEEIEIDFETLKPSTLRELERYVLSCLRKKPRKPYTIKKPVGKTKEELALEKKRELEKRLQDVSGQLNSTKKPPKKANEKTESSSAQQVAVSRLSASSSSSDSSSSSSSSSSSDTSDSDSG
Description: (§1) Anti-BRD4 (13440, 1:1,000 dilution for Western Blot and 1:25 dilution for ProteinSimple); Anti-BRD2 (5848 1:1,000 dilution for Western Blot and 1:25 dilution for ProteinSimple); β-Actin (3700, 1:2,000 dilution for Western Blot), β-Actin (4970, 1:50 dilution for ProteinSimple) anti-mouse IgG-HRP, and anti-rabbit IgG-HRP antibodies were purchased Cell Signaling Technology. Anti-GAPDH (600-401-A33, 1:100 dilution for ProteinSimple) was purchased from Rockland Immunochemicals, Inc. Anti-BRD3 (sc-81202, 1:200 dilution for Western Blot) was purchased from Santa Cruz Biotechnology.
HeLa, MCF7, or HCT116 cells (2.5-3×10^6) were treated for 24 hours with the indicated compounds solubilized in DMSO. The cells were washed in ice-cold PBS and were then lysed in RIPA lysis buffer (150 mM NaCl, 5 mM EDTA, 1% NP-40, 0.5% sodium deoxycholate, 0.1% SDS, 50 mM Tris, pH 8.0.) with Roche protease inhibitor complete cocktail and phosphatase inhibitors (10 mM sodium fluoride, 10 mM sodium pyrophosphate, 1 mM sodium orthovanadate and 20 mM β-glycerophosphate). The total protein concentrations were determined by Bradford Protein Assay and 10-20 μg of protein was loaded onto 4-15% Tris-Glycine gradient gels (Biorad). […] Signal was detected with ECL Western Blotting Substrate (Pierce) and X-ray film processed with a Konica SRX-101 X-ray film processor or captured by Bio-Rad's Chemidoc Imaging system. […]

[3] = test system: MV-4-11 cells; test: CellTiter-Glo cell viability, MV-4-11 cells; assay type: cell-based
Method: CellTiter-Glo® 2.0 Cell Viability Assay (Promega) was carried out following the manufacturer's recommendations. Cells were seeded at a density of 1000 cells/well in a white 96 well plates (Corning, #3917) in a total volume of 100 μl with respective monomers, combinations of BRD ligands together with E3 ligase ligands or vehicle control treatment. After a 72 h incubation, 100 ul of the CellTiter-Glo® substrate was added per well and luminescence was read on a Spectramax M5 (Molecular Devices). Dose-response curves were generated using Graphpad Prism software.
MV-4-11 cells (5×104) were treated for 24 hours with the sample compounds solubilized in DMSO. The compounds were added at 1 nM-100 μM each. Cellular viability was determined using the CellTiter-Glo® Luminescent Cell Viability Assay (Promega) described above. FIGS. 19-22 depict the CURE-PRO-mediated loss of cellular viability for BRD monomers (JQ1 derivatives comprising of catechol linkers), and CRBN ligand, 8049 (pomalidomide derivatives comprising boronic acid linkers) combined in a 1:1 ratio.
MV-4-11 cells (1×104) were treated for 72 hours with the compounds solubilized in DMSO. Compounds were added at 10 nM-100 μM each. Cellular viability was determined using the CellTiter-Glo® Luminescent Cell Viability Assay (Promega) described above. FIGS. 47-54 depict the CURE-PRO-mediated loss of cellular viability for BRD monomers (JQ1 derivatives comprising of boronic acid linkers), and CRBN ligands, 8046, 8047 and 8066 (pomalidomide derivatives comprising diol linkers) combined in a 1:1 ratio.

[4] = target: BRD4 (Homo sapiens, UniProt O60885); test: CURE-PRO-mediated BRD4 degradation with MDM2 ligands, Western blot, HCT116 cells; assay type: cell-based; parameters: endogenous in cells; settings: for BRD4 degradation, in combination with MDM2 ligands 8310 and 8312 (Western blot): HCT116, 24 h, 1:1, 10 μM; for Selectivity of degradation within the BRD protein family, with MDM2 ligands: HCT116, Western blot, with 8310 / 8312
Description: as §1
HeLa, MCF7, or HCT116 cells (2.5-3×10^6) were treated for 24 hours with the indicated compounds solubilized in DMSO. The cells were washed in ice-cold PBS and were then lysed in RIPA lysis buffer (150 mM NaCl, 5 mM EDTA, 1% NP-40, 0.5% sodium deoxycholate, 0.1% SDS, 50 mM Tris, pH 8.0.) with Roche protease inhibitor complete cocktail and phosphatase inhibitors (10 mM sodium fluoride, 10 mM sodium pyrophosphate, 1 mM sodium orthovanadate and 20 mM β-glycerophosphate). The total protein concentrations were determined by Bradford Protein Assay and 10-20 μg of protein was loaded onto 4-15% Tris-Glycine gradient gels (Biorad). After standard gel electrophoresis, the separated proteins were transferred to PVDF membrane by wet transfer. The immunoblots were then blocked for 1 hour in 5% skim milk in TBST or 5% BSA in TBST, according to manufacturer's instructions, before an overnight incubation at 4° C. with indicated antibodies and membranes. Membranes were then incubated with the appropriate horseradish peroxidase-conjugated secondary antibodies (1:5,000 dilution) for 1 h at room temperature and the bands were visualized using the Clarity Max Western ECL Substrate (Biorad) and the ChemiDoc Imaging System (Biorad). Signal was detected with ECL Western Blotting Substrate (Pierce) and X-ray film processed with a Konica SRX-101 X-ray film processor or captured by Bio-Rad's Chemidoc Imaging system.
HCT116 cells (3×10^6) were treated for 24 hours with the compounds solubilized in DMSO. Compounds were added at 100 nM-10 μM each. Standardized protein samples were electrophoresed and imaged as described in the Immunoblotting section above. FIGS. 64 and 65 depict the concentration-dependence of CURE-PRO-mediated BRD2 and BRD3 degradation using MDM2 ligands.

| Structure (SMILES) | Suppression of SLC19A1 expression, combination with 8310 [1] | Suppression of SLC19A1 expression, combination with 8312 [1] | BRD2 degradation, in combination with MDM2 ligands 8310 and 8312 [2] | Loss of cellular viability / toxicity, co-dosed with CRBN ligand 8049 ([3]; MV-4-11, 24 hours, 1:1 with 8049, 1 nM-100 μM each) | BRD4 degradation, in combination with MDM2 ligands 8310 and 8312 (Western blot) [4] | Selectivity of degradation within the BRD protein family, with MDM2 ligands [4] | Loss of cellular viability / toxicity, cotreated with cereblon ligands 8046, 8047 and 8066 vs monomers alone ([3]; MV-4-11, 72 hours, 1:1, 10 nM-100 μM each) |
| --- | --- | --- | --- | --- | --- | --- | --- |
| CCNC(=O)C[C@@H]1N=C(c2ccc(Cl)cc2)c2cc(OCCNC(=O)c3cccc(O)c3O)ccc2-n2c(C)nnc21 [BRD-N25] | evident | evident; also recorded: suppressed more substantially | BRD2 to a lesser extent; also recorded: Degradation is evident | concentration-dependent loss in cellular viability; also recorded: increased toxicity | caused BRD4 degradation; also recorded: Degradation is evident | some selectivity for BRD3 and BRD4 over BRD2 for 8310 |  |
| CCNC(=O)C[C@@H]1N=C(c2ccc(Cl)cc2)c2cc(OCCOCCNC(=O)c3cccc(O)c3O)ccc2-n2c(C)nnc21 [BRD-N39, N-(2-(2-(((4S)-6-(4-chlorophenyl)-4-(2-(ethylamino)-2-oxoethyl)-1-methyl-4H-benzo[f][1,2,4]triazolo[4,3-a][1,4]diazepin-8-yl)oxy)ethoxy)ethyl)-2,3-dihydroxybenzamide] | evident; also recorded: suppression to levels comparable to that of JQ1 treatment | Complete suppression of SLC19A1 was evident; also recorded: completely suppressed | BRD2 to a lesser extent; also recorded: Degradation is evident |  | caused BRD4 degradation; also recorded: Degradation is evident | some selectivity for BRD4 over BRD2 and BRD3 |  |
| CCNC(=O)C[C@@H]1N=C(c2ccc(Cl)cc2)c2cc(OCCCCC(=O)Nc3cccc(B(O)O)c3)ccc2-n2c(C)nnc21 [BRD-E20, (3-(5-(((4S)-6-(4-chlorophenyl)-4-(2-(ethylamino)-2-oxoethyl)-1-methyl-4H-benzo[f][1,2,4]triazolo[4,3-a][1,4]diazepin-8-yl)oxy)pentanamido)phenyl)boronic acid] |  |  |  |  |  |  | reduced viability; also recorded: increased toxicity |
